Measurements as given in ChEMBL document CHEMBL1136333, “A novel series of histone deacetylase inhibitors incorporating hetero aromatic ring systems as connection units” (Bioorg Med Chem Lett, 2003).
pIC50: −log10 of the molar value.

Assays:
cells = format: functional; conditions: Homo sapiens, MDA435
[1] = target: Histone deacetylase (HDAC1 and HDAC2) (Homo sapiens, UniProt Q13547+Q92769); experiment: Inhibitory activity against histone deacetylase (HDAC1 and HDAC2) isolated from K562 erythroleukemia cells; format: cell-based
HT-1080 [2] = experiment: Antiproliferative activity against human HT1080 fibrosarcoma cell line at a dose of 50 uM; format: functional
HT-1080 [3] = experiment: Antiproliferative activity against human HT1080 fibrosarcoma cell line; format: functional, cell-based
[4] = Antiproliferative activity against human MDA-435 breast carcinoma cell line at a dose of 50 uM; format: functional

pIC50 (cells)	IC50 [1] [µM]	pIC50 (HT-1080 [3])	pIC50 [1]	SMILES	inhibition at 50 µM (HT-1080 [2]) [%]	inhibition at 50 µM [4] [%]
–	0.56	–	–	O=C(CCCCCCCc1ccccc1)NO	–	–
–	0.33	–	–	O=C(CCCCCCOc1ccccc1)NO	–	–
4.69	0.089	5.29	–	O=C(CCCCCCc1cnc(-c2ccc(OC(F)(F)F)cc2)o1)NO	–	–
–	0.019	5.29	–	O=C(CCCCCCc1nc(-c2ccccc2)cs1)NO	–	99.7
–	0.058	–	–	O=C(CCCCCCc1ccc(-c2ccccc2)cc1)NO	–	–
–	0.013	–	–	O=C(CCCCCCc1cnc(-c2ccccc2)o1)NO	23	6.12
5.66	0.0098	5.08	–	O=C(CCCCCCc1ncc(-c2ccccc2)o1)NO	–	–
5.10	0.023	–	–	O=C(CCCCCCc1cnc(-c2ccc(F)cc2)o1)NO	76	–
–	0.021	–	–	CNC(=O)C(=O)CCCCCCc1cnc(-c2ccccc2)o1	–	–

Further lines, the compound ahead of its results:

SMILES	pIC50 (cells)	IC50 [1] [µM]	pIC50 (HT-1080 [3])	pIC50 [1]	inhibition at 50 µM (HT-1080 [2]) [%]	inhibition at 50 µM [4] [%]
O=C(CCCCCCc1nc(-c2ccc(OC(F)(F)F)cc2)cs1)NO	5.69	0.074	–	–	100	–
COc1ccc(-c2cnc(CCCCCCC(=O)NO)o2)cc1	5.60	0.0021	6.51	–	–	–
O=C(CCCCCCc1cnc(-c2ccc(Br)cc2)o1)NO	–	0.0044	4.57	–	–	97
COc1ccc(-c2csc(CCCCCCC(=O)NO)n2)cc1	5.53	0.0025	5.44	–	–	–
O=C(CCCCCCc1ncc(-c2ccc(-c3ccc(Cl)cc3)cc2)o1)NO	6.02	0.0068	6.18	–	–	–
O=C(CCCCCCc1nc(-c2cccc(Br)c2)cs1)NO	–	0.0058	5.00	–	–	98.6
O=C(CCCCCCc1nc(-c2ccc(C(F)(F)F)cc2)cs1)NO	6.07	0.042	5.62	–	–	–
O=C(CCCCCCc1nc(-c2ccc(-c3ccccc3)cc2)cs1)NO	5.71	0.011	5.88	–	–	–
CNC(=O)C(=O)CCCCCCc1cnc(-c2ccc(Br)cc2)o1	–	0.03	–	–	–	–
CNC(=O)C(=O)CCCCCCc1cnc(-c2ccccc2)s1	–	0.047	–	–	–	–
O=C(CCCCCCc1ncc(-c2ccc(Br)cc2)o1)NO	5.17	0.0027	5.11	–	–	–
O=C(CCCCCCc1cnc(-c2ccc(-c3ccccc3)cc2)o1)NO	4.01	0.012	4.82	–	–	–
CNC(=O)C(=O)CCCCCCc1ncc(-c2ccc(OC)cc2)o1	–	0.011	–	–	–	–
O=C(CCCCCCc1nc(-c2ccc(Br)cc2)cs1)NO	5.09	0.0085	5.25	–	–	–
O=C(CCCCCCc1nc(-c2ccc3ccccc3c2)cs1)NO	6.07	0.0043	5.62	–	–	–
COc1cccc(OC)c1-c1csc(CCCCCCC(=O)NO)n1	5.54	0.0043	5.70	–	–	–
O=C(CCCCCCNC(=O)c1ccccc1)NO	–	–	–	6.00	–	–
